Measured values from article PMC4553520, “Laboratory and Simulated Field Bioassays to Evaluate Larvicidal Activity of Pinus densiflora Hydrodistillate, Its Constituents and Structurally Related Compounds against Aedes albopictus, Aedes aegypti and Culex pipiens pallens in Relation to Their Inhibitory Effects on Acetylcholinesterase Activity” (Insects, 2013).

Assays:
[1] = system: early third-instar larvae of Ae. aegypti; assay: Direct-contact mortality bioassay, Ae. aegypti larvae; conditions: early third-instar larvae, 24 h exposure, direct contact
Procedure: (§1) Direct-contact mortality bioassays were employed to evaluate the toxicity of all compounds, using early third-instar larvae of each mosquito species. Each compound was dissolved in methanol, and then further diluted in distilled water containing Triton X-100 (20 µL/L). Groups of 20 mosquito larvae of each species were put into separate paper cups (270 mL), each containing different compound solutions (250 mL). The toxicity of each compound was determined by repeating this experimental procedure with different concentrations, ranging from 5 to 200 mg/L. Temephos and fenthion served as standard references and were similarly formulated as well. Controls contained only methanol-Triton X-100 carrier solution in distilled water.
(§2) Both treated and control larvae were kept under the same conditions as those used for colony maintenance. […] Due to certain constraints arising from the number of available larvae, all necessary bioassays could not be conducted simultaneously and thus, treatments were conducted over a period of time, with a separate control treatment included each time. Freshly prepared compound solutions were used for each round of bioassays. All bioassays were repeated three times.
(§3) Concentration-mortality data were subjected to probit analysis using SAS [20]. […] Furthermore, for the compounds tested in AChE inhibition assays, a correlation analysis between their LC50 values and IC50 values was conducted using SAS [20].

[2] = biological target: acetylcholinesterase (AChE) extracted from the heads of larval Ae. aegypti (Aedes aegypti, UniProt Q6A2E2); assay: AChE inhibition assay, Ae. aegypti; type: biochemical; conditions: in vitro
acetylcholinesterase (AChE) extracted from the heads of larval Ae. aegypti, sequence (Q6A2E2 37-679): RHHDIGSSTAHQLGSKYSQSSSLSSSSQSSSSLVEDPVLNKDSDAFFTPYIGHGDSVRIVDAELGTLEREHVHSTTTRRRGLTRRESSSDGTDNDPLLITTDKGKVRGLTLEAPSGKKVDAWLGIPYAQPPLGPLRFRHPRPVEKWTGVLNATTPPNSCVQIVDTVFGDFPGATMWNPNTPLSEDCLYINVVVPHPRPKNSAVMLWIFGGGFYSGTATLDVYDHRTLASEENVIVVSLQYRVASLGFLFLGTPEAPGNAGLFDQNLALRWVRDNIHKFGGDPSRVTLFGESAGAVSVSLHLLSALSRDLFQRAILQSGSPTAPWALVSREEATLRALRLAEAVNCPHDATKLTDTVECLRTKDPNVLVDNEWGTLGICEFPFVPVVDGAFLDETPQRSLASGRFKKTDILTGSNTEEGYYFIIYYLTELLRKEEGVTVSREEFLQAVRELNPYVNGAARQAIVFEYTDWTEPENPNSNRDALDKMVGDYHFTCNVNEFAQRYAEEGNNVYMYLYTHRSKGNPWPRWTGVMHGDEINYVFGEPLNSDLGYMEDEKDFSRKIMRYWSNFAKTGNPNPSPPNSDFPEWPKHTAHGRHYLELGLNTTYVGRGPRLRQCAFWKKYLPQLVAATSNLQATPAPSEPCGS
Procedure: (§4) For each species, larvae frozen at −20 °C were decapitated and 100 heads were homogenized in 5 mL of ice-cold 0.1 M sodium phosphate buffer (pH 8.0), using a Teflon glass tissue homogenizer. The homogenate was centrifuged at 10,000 × g at 4 °C for 20 min. The supernatant was filtered by a 0.22 µm-Millex-GV filter (Millipore, Cork, Ireland) and was used as the AChE preparation. Protein concentrations were determined by the Bradford dye method using BSA as the standard. A microplate AChE assay was carried out following the method of Moores et al. adapted from Ellman et al.. The reaction mixture consisted of 80 µL of the crude enzyme preparation, 10 µL of 7.5 mM DTNB in phosphate buffer (pH 7.0) and 100 µL of the selected test compounds of various concentrations in 2.5% acetone. The reaction mixture was incubated at 30 °C for 5 min and 10 µL of 6.25 mM ATChI was then added to the mixture. The absorbance was recorded at 414 nm, using a Molecular Devices VersaMax microplate reader (Sunnyvale, CA, USA). All AChE inhibition assays were repeated three times in triplicates.
as §3

[3] = system: early third-instar larvae of Ae. albopictus; assay: Direct-contact mortality bioassay, Ae. albopictus larvae; conditions: early third-instar larvae, 24 h exposure, direct contact
Procedure: as §1, §2, §3

[4] = biological target: acetylcholinesterase (AChE) extracted from the heads of larval Cx. p. pallens (Culex pipiens pallens, UniProt Q86GC8); assay: AChE inhibition assay, Cx. p. pallens; type: biochemical; conditions: in vitro
acetylcholinesterase (AChE) extracted from the heads of larval Cx. p. pallens, sequence (Q86GC8 37-702): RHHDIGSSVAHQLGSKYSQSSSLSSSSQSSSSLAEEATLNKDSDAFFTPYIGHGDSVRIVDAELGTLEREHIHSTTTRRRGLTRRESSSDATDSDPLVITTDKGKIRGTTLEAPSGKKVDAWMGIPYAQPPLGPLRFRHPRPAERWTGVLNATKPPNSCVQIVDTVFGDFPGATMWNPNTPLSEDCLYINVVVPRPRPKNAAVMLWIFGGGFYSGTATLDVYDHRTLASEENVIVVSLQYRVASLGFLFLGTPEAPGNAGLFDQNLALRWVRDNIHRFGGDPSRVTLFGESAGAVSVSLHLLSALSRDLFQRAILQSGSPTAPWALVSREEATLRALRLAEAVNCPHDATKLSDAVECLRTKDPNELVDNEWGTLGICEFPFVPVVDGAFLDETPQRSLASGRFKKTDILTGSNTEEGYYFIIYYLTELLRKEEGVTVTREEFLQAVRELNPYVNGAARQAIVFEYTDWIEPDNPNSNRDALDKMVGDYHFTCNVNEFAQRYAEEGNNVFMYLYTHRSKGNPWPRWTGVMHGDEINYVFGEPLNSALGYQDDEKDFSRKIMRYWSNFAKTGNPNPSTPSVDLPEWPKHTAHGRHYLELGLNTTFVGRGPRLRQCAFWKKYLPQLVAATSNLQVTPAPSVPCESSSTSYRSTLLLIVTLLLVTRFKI
Procedure: as §4, §3

[5] = system: early third-instar larvae of Cx. p. pallens; assay: Direct-contact mortality bioassay, laboratory-reared Cx. p. pallens larvae; conditions: laboratory-reared early third-instar larvae, 24 h exposure, direct contact
Procedure: as §1, §2, §3

[6] = biological target: acetylcholinesterase (AChE) extracted from the heads of larval Ae. albopictus (Aedes albopictus, UniProt Q2PGF2); assay: AChE inhibition assay, Ae. albopictus; type: biochemical; conditions: in vitro
acetylcholinesterase (AChE) extracted from the heads of larval Ae. albopictus, sequence (Q2PGF2 37-680): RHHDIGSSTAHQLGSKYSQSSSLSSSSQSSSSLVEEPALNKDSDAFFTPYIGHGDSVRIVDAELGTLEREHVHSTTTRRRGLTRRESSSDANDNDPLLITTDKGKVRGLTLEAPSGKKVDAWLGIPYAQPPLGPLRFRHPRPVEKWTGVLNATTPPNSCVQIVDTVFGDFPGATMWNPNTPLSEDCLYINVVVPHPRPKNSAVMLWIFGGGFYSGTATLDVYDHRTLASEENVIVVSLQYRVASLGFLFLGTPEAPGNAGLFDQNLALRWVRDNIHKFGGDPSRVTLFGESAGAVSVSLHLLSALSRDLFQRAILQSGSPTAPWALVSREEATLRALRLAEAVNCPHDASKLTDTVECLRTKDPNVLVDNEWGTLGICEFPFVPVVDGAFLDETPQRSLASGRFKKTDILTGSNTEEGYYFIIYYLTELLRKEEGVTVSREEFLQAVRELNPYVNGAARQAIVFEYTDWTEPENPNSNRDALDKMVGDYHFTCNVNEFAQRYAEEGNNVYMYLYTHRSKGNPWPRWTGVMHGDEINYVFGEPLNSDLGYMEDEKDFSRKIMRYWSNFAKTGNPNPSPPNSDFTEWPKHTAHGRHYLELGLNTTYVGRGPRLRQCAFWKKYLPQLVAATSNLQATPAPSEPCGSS
Procedure: as §4, §3

Compound: C/C1=C\CC/C(C)=C/CC(C)(C)/C=C/C1 [α-humulene]
- LC50 (Ae. aegypti), mg/L (95% CL) [1]: >150 mg/L
- IC50 [2]: 58.1 mM
- LC50 (Ae. albopictus), mg/L (95% CL) [3]: >150 mg/L
- IC50 [4]: 62.3 mM
- LC50 (Cx p. pallens), mg/L (95% CL) [5]: >150 mg/L
- IC50 [6]: 47.6 mM

Compound: (−)-myrtenal
- LC50 (Ae. aegypti), mg/L (95% CL) [1]: >150 mg/L
- IC50 [2]: 34 mM
- LC50 (Ae. albopictus), mg/L (95% CL) [3]: 137.86 (119.15–173.91) mg/L
- IC50 [4]: 31.6 mM
- LC50 (Cx p. pallens), mg/L (95% CL) [5]: 139.61 (122.92–169.77) mg/L
- IC50 [6]: 23.7 mM
